Laboratory results taken from paper PMC4104029, “Mechanism of Action of Compound-13: An α1-Selective Small Molecule Activator of AMPK” (Chemistry & Biology, 2014).

Tests used:
5′-nucleotidase = assay: 5′-Nucleotidase assay; format: biochemical; details: concentrations up to 100 μM; data not shown
Protocol: Additional enzyme assays. Glycogen phosphorylase (EC 2.4.1.1) was assayed in the physiological direction in reactions containing 20 mM BES pH 6.8, 20 mM phosphate, 1 mM NADP+, 0.5 mM MgCl2, 0.1 % glycogen, 4 µM glucose-1,6-bisphosphate, 0.5 mM DTT, 0.025 % BSA, 0.6 U/ml phosphoglucomutase and 3 U/ml glucose-6-phosphate dehydrogenase (G6PDH). FBP1 (EC 3.1.3.11) was assayed in reactions containing 50 mM TES pH 7.4, 0.1 […]
mM 2-mercaptoethanol, 25 µM fructose-1,6-bisphosphate, 0.8 U/ml phosphoglucoisomerase and 0.5 U/ml G6PDH. PFK1 (EC 2.7.1.11) was assayed in reactions containing 50 mM TES pH 7.4, 2 mM MgCl2, 0.05 % BSA, 2 mM 2-mercaptoethanol, 0.5 mM fructose-6-phosphate, 1 mM ATP, 0.2 mM NADH, 0.5 U/ml aldolase, 15 U/ml triosephosphate isomerase and 2 U/ml α-glycerophosphate dehydrogenase. […] All assays were performed in a final volume of 250 µl and were monitored by changes in fluorescence (FBP1 - λex 340nm, λem 450nm) or A340. […] Liberated phosphate was determined using malachite green reagent. […] The formation of pyrophosphate (PPi) was monitored by reduction of PPi-molybdate complexes using 2-mercaptoethanol and Fiske-Subbarow reducer (Kuang, et al., 2007). […]
Tricistronic expression vectors were constructed using a strategy inspired by Neumann et al (Neumann, et al., 2003). […] The open reading frame of AMPKα1 and AMPKα2 was inserted after the 6×His tag as a Bamh1-Not1 fragment. […]

Yeast acetate CoA ligase = assay: Acetate CoA ligase assay; format: biochemical; details: 0–100 μM
Excerpt: (Needleman and Wunsch, 1970) and edited using ESPript (Gouet, et al., 2003). Secondary structure was derived from PDBID 2Y94. The phosphotransferase domain is shaded green (T-loop phosphorylation site is indicated with a star), the autoinhibitory domain in blue and the C-terminal domain in yellow. Regulatory elements in the α-linker are also indicated: α-hook in pink and α-RIMs in orange. Black lines indicate the position of the epitopes recognised by α-subunit specific antibodies used in this study. (B) COS-1 cells were seeded into 6-well plates and transiently transfected with pCMV-AMPKβ1, pCMV-AMPKγ1 and either pCMV-FLAG-AMPKα2 WT or pCMV-FLAG-AMPKα2/α1 LOOP chimera using FuGENE HD.
After 24 h cells were treated with the indicated compounds for 1 h and kinase activity determined in anti-FLAG immunoprecipitates under standard conditions. […]
Mouse hepatocytes were incubated with the indicated compounds in the absence (Resting) or presence of 10 mU/ml insulin for 60 min. Lysates were analysed by Western blotting using the indicated antibodies. […]
Yeast acetate CoA ligase (Sigma) was assayed in reactions containing 50 mM TES pH 7.4, 0.1 mM EDTA, 5 mM MgCl2, 4 mM ATP, 0.2 mM coenzyme A, 5 mM DTT and increasing concentrations of C2 and C13 (0 – 100 μM). The formation of pyrophosphate (PPi) was monitored by reduction of PPi-molybdate complexes as described in Methods. […]

Compound | effect on enzyme activity (5′-nucleotidase) | IC50 (Yeast acetate CoA ligase) [µM]
O=P(O)(O)c1ccc(-c2cc(O)on2)o1 [Compound C2, 5-(5-hydroxyl-isoxazol-3-yl)-furan-2-phosphonic acid] | None of these enzymes were affected | 
CC(C)C(=O)OCOP(=O)(OCOC(=O)C(C)C)c1ccc(C2=NOC(=O)C2)o1 [Compound C13] |  | 33 ± 2.2
